In US9108903B2, “Amides as modulators of sodium channels” (VERTEX PHARMACEUTICALS INCORPORATED, priority 2013, dated 2015):
pIC50: −log10 of the molar value.

What follows are compounds tested against human Nav1.8 (Homo sapiens (Human), UniProt Q9Y5Y9) (assay: E-VIPR optical membrane potential assay with electrical stimulation). Settings: HEK cells expressing human Nav1.8.
Assay type: cell-based
Text: Assays for Detecting and Measuring NaV Inhibition Properties of Compounds E-VIPR Optical Membrane Potential Assay Method with Electrical Stimulation
Sodium channels are voltage-dependent proteins that can be activated by inducing membrane voltage changes by applying electric fields. The electrical stimulation instrument and methods of use are described in Ion Channel Assay Methods PCT/US01/21652, herein incorporated by reference and are referred to as E-VIPR. The instrument comprises a microtiter plate handler, an optical system for exciting the coumarin dye while simultaneously recording the coumarin and oxonol emissions, a waveform generator, a current- or voltage-controlled amplifier, and a device for inserting electrodes in well. Under integrated computer control, this instrument passes user-programmed electrical stimulus protocols to cells within the wells of the microtiter plate.
24 hours before the assay on E-VIPR, HEK cells expressing human Nav1.8 were seeded in 384-well poly-lysine coated plates at 15,000-20,000 cells per well. HEK cells were grown in media (exact composition is specific to each cell type and NaV subtype) supplemented with 10% FBS (Fetal Bovine Serum, qualified; GibcoBRL #16140-071) and 1% Pen-Strep (Penicillin-Streptomycin; GibcoBRL #15140-122). Cells were grown in vented cap flasks, in 90% humidity and 5% CO2.
100 mg/mL Pluronic F-127 (Sigma #P2443), in dry DMSO
Compound Plates: 384-well round bottom plate, e.g. Corning 384-well Polypropylene Round Bottom #3656
Cell Plates: 384-well tissue culture treated plate, e.g. Greiner #781091-1B
Bath1 buffer: Glucose 10 mM (1.8 g/L), Magnesium Chloride (Anhydrous), 1 mM (0.095 g/L), Calcium Chloride, 2 mM (0.222 g/L), HEPES 10 mM (2.38 g/L), Potassium Chloride, 4.5 mM (0.335 g/L), Sodium Chloride 160 mM (9.35 g/L).
Hexyl Dye Solution: Bath1 Buffer+0.5% β-cyclodextrin (make this prior to use, Sigma #C4767), 8 μM CC2-DMPE+2.5 μM DiSBAC6(3). To make the solution added volume of 10% Pluronic F127 stock equal to volumes of CC2-DMPE+DiSBAC6(3). The order of preparation was first mix Pluronic and CC2-DMPE, then added DiSBAC6(3) while vortexing, then added Bath1+β-Cyclodextrin.
1) Pre-spotted compounds (in neat DMSO) into compound plates. Vehicle control (neat DMSO), the positive control (20 mM DMSO stock tetracaine, 125 μM final in assay) and test compounds were added to each well at 160× desired final concentration in neat DMSO. Final compound plate volume was 80 μL (80-fold intermediate dilution from 1 μL DMSO spot; 160-fold final dilution after transfer to cell plate). Final DMSO concentration for all wells in assay was 0.625%.
2) Prepared Hexyl Dye Solution.
3) Prepared cell plates. On the day of the assay, medium was aspirated and cells were washed three times with 100 μL of Bath1 Solution, maintaining 25 μL residual volume in each well.
4) Dispensed 25 μL per well of Hexyl Dye Solution into cell plates. Incubated for 20-35 minutes at room temp or ambient conditions.
5) Dispensed 80 μL per well of Bath1 into compound plates. Acid Yellow-17 (1 mM) was added and Potassium Chloride was altered from 4.5 to 20 mM depending on the NaV subtype and assay sensitivity.
6) Washed cell plates three times with 100 μL per well of Bath1, leaving 25 μL of residual volume. Then transfered 25 uL per well from Compound Plates to Cell Plates. Incubated for 20-35 minutes at room temp/ambient condition.
7) Read Plate on E-VIPR. Used the current-controlled amplifier to deliver stimulation wave pulses for 10 seconds and a scan rate of 200 Hz. A pre-stimulus recording was performed for 0.5 seconds to obtain the un-stimulated intensities baseline. The stimulatory waveform was followed by 0.5 seconds of post-stimulation recording to examine the relaxation to the resting state.
Data was analyzed and reported as normalized ratios of emission intensities measured in the 460 nm and 580 nm channels. The response as a function of time was reported as the ratios obtained using the following formula: […]

Chain of human Nav1.8 (Q9Y5Y9 whole entry): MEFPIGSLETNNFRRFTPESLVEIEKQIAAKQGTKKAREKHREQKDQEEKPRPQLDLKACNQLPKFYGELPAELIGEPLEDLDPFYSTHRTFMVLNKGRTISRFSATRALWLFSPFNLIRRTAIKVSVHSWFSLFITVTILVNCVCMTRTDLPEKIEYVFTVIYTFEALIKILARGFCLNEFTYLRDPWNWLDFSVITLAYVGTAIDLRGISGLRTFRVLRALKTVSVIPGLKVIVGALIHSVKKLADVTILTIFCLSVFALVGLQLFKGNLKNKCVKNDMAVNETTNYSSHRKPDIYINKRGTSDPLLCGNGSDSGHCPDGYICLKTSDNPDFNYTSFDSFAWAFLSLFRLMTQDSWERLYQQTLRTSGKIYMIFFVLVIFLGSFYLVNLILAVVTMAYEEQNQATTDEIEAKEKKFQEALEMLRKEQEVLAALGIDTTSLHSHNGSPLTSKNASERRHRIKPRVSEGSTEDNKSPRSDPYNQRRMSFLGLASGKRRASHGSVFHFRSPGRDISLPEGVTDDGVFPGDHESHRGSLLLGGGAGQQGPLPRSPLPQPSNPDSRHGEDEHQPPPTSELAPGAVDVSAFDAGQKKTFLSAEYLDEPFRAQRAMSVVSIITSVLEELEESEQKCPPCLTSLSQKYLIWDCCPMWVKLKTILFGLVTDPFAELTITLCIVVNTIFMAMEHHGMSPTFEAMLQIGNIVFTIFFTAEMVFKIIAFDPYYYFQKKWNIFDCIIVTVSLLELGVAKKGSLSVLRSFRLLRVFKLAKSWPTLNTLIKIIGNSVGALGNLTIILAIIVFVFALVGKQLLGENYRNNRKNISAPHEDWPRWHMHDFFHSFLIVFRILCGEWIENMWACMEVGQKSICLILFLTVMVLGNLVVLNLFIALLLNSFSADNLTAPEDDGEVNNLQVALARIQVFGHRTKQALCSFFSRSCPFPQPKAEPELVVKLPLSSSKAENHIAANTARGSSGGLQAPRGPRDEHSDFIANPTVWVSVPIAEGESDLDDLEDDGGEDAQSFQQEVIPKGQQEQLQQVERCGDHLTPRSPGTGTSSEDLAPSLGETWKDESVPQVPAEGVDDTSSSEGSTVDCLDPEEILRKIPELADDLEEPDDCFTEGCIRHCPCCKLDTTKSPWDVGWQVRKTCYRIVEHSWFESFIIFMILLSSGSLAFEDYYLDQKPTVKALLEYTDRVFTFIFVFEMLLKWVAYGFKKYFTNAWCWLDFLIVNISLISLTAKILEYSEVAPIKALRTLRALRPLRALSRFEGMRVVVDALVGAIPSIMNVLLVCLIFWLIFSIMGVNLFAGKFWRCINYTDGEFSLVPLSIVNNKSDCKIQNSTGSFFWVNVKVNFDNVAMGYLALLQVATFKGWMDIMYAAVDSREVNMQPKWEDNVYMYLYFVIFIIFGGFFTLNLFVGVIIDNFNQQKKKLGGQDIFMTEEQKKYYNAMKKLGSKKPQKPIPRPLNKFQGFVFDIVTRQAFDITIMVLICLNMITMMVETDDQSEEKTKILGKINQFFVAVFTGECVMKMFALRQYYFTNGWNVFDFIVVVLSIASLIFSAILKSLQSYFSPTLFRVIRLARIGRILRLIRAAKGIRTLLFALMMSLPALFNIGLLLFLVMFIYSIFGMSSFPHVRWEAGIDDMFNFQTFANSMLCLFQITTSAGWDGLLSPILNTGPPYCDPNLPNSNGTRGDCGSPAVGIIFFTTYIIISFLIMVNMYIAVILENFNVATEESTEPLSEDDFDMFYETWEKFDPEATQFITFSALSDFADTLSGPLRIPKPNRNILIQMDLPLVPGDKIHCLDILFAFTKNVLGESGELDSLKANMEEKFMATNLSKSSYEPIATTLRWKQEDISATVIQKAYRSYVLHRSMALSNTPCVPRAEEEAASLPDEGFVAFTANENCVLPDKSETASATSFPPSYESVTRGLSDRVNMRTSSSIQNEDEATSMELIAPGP

pIC50 | Compound
7.92 | 4-(4,5-dichloro-2-(4-fluoro-2-methoxyphenoxy)benzamido)picolinic acid [Compound 76]
7.77 | O=C(O)c1ccc(NC(=O)c2ccc(C(F)(F)C(F)(F)F)cc2Oc2ccc(F)cc2Cl)cc1 [Compound 1, 4-(2-(2-chloro-4-fluorophenoxy)-4-(perfluoroethyl)benzamido)benzoic acid]
7.49 | O=C(O)c1ccc(NC(=O)c2ccc(C(F)(F)C(F)(F)F)cc2Oc2ccc(F)cc2F)cc1 [Compound 2, 4-(2-(2,4-difluorophenoxy)-4-(perfluoroethyl)benzamido)benzoic acid]
7.66 | Cc1cc(F)ccc1Oc1cc(C(F)(F)C(F)(F)F)ccc1C(=O)Nc1ccc(C(=O)O)cc1 [Compound 3, 4-(2-(4-fluoro-2-methylphenoxy)-4-(perfluoroethyl)benzamido)benzoic acid]
7.24 | O=C(O)c1ccc(NC(=O)c2ccc(C(F)(F)F)cc2Oc2ccc(F)cc2Cl)cc1 [Compound 4, 4-(2-(2-chloro-4-fluorophenoxy)-4-(trifluoromethyl)benzamido)benzoic acid]
7.22 | Cc1cc(F)ccc1Oc1cc(C(F)(F)F)ccc1C(=O)Nc1ccc(C(=O)O)cc1 [Compound 5, 4-(2-(4-fluoro-2-methylphenoxy)-4-(trifluoromethyl)benzamido)benzoic acid]
6.84 | O=C(O)c1ccc(NC(=O)c2ccc(C(F)(F)F)cc2Oc2ccc(F)cc2F)cc1 [Compound 6, 4-(2-(2,4-difluorophenoxy)-4-(trifluoromethyl)benzamido)benzoic acid]
7.43 | O=C(O)c1ccc(NC(=O)c2ccc(C(F)(F)F)cc2Oc2ccc(OC(F)(F)F)cc2)cc1 [Compound 7, 4-(2-(4-(trifluoromethoxy)phenoxy)-4-(trifluoromethyl)benzamido)benzoic acid]
6.39 | O=C(O)c1ccc(NC(=O)c2c(Oc3ccc(F)cc3F)cc(C(F)(F)F)cc2C(F)(F)F)cc1 [Compound 8, 4-(2-(2,4-difluorophenoxy)-4,6-bis(trifluoromethyl)benzamido)benzoic acid]
6.89 | Cc1cc(F)ccc1Oc1cc(C(F)(F)F)cc(C(F)(F)F)c1C(=O)Nc1ccc(C(=O)O)cc1 [Compound 9, 4-(2-(4-fluoro-2-methylphenoxy)-4,6-bis(trifluoromethyl)benzamido)benzoic acid]
7.43 | COc1cc(F)ccc1Oc1cc(C(F)(F)F)cc(C(F)(F)F)c1C(=O)Nc1ccc(C(=O)O)cc1 [Compound 10, 4-(2-(4-fluoro-2-methoxyphenoxy)-4,6-bis(trifluoromethyl)benzamido)benzoic acid]
6.52 | O=C(O)c1ccc(NC(=O)c2c(Oc3ccc(F)cc3)cc(C(F)(F)F)cc2C(F)(F)F)cc1 [Compound 11, 4-(2-(4-fluorophenoxy)-4,6-bis(trifluoromethyl)benzamido)benzoic acid]
7.96 | COc1cc(F)ccc1Oc1cc(Cl)c(Cl)cc1C(=O)Nc1ccc(C(=O)O)cc1 [Compound 12, 4-(4,5-dichloro-2-(4-fluoro-2-methoxyphenoxy)benzamido)benzoic acid]
7.24 | O=C(O)c1ccc(NC(=O)c2cc(Cl)c(Cl)cc2Oc2ccc(F)cc2)cc1 [Compound 13, 4-(4,5-dichloro-2-(4-fluorophenoxy)benzamido)benzoic acid]
7.82 | Cc1cc(F)ccc1Oc1cc(Cl)c(Cl)cc1C(=O)Nc1ccc(C(=O)O)cc1 [Compound 14, 4-(4,5-dichloro-2-(4-fluoro-2-methylphenoxy)benzamido)benzoic acid]
6.54 | O=C(O)c1ccc(NC(=O)c2cc(Cl)c(Cl)cc2Oc2ccccc2)cc1 [Compound 15, 4-(4,5-dichloro-2-phenoxybenzamido)benzoic acid]
6.94 | COc1ccc(Oc2cc(Cl)c(Cl)cc2C(=O)Nc2ccc(C(=O)O)cc2)c(F)c1 [Compound 16, 4-(4,5-dichloro-2-(2-fluoro-4-methoxyphenoxy)benzamido)benzoic acid]
